In US10780101B2, “Amide derivatives of squalamine for the treatment of infections” (VIRBAC, priority 2016, dated 2020):
≈ marks a conversion by molar mass, not a printed value. Read-outs that look alike come from different tables or passages of the source.

Assays:
[1] = system: S. aureus Human ATCC 25923; test: MIC determination, S. aureus human ATCC 25923; type: cell-based; settings: Staphylococcus aureus, ATCC25923; Gram-positive; Mueller-Hinton medium, 24 h at 37° C.
Experimental: (§1) A negative control (2 mL of sterile culture medium)
(§2) A positive control (1940 μL of culture medium+40 μL of DMSO+20 μL of the bacterial suspension) from a thawed biological strain (the biological strains are stored at −80° C. in glycerol).
(§3) The tubes were incubated at 37° C. for 24 hours at 100 rpm.
(§4) The microorganisms were handled under a type L2 laboratory fume cupboard and, before any handling, a UV cycle was programmed and only sterile material was used. […] The chemical compounds to be tested were prepared in a DMSO/methanol mixture (50/50) at a concentration of 5 mg/mL.
(§5) After 24 hours of incubation, a measurement of the optical density was taken using a spectrophotometer at 600 nm, collecting 100 μL of the bacterial suspension diluted in 900 μL of the sterile culture medium. This test required the use of a 96-well plate and the required volume of the microbial suspension to be seeded was calculated for an OD corresponding to a value equal to 0.01 in each well. In this plate, the first line corresponded to the negative control (195 μL of sterile culture medium in each well), the second line corresponded to the positive control (seeded culture medium supplemented with 2% of DMSO), and the third line was loaded twice with bacterial suspension; 8 μL of test product were placed in each well. Thereafter, a 0.5 cascade dilution was performed from this line.
(§6) The first column served as inhibition control. A sterile filter was then placed on the microplate, allowing the passage of gases but not of contaminants. The microplate was incubated at 37° C. under a humid atmosphere for 24 hours.
(§7) NB: The medium used is Mueller-Hinton (MH) medium for bacteria. All the tests were performed in duplicate.
(§8) After incubation, the filter was replaced with a transparent film, and an OD reading was then taken in an iEMS plate spectrophotometer at 620 nm. Calculation of the minimum inhibitory concentration (MIC) was performed.

S. aureus Animal (340) = test: MIC determination, S. aureus animal (340); type: cell-based; settings: Staphylococcus aureus; Gram-positive; Mueller-Hinton medium, 24 h at 37° C.
Experimental: as §1, §2, §3, §4, §5, §6, §7, §8

[2] = system: S. intermedius Animal (1051997); test: MIC determination, S. intermedius animal (1051997); type: cell-based; settings: Staphylococcus intermedius; Gram-positive; Mueller-Hinton medium, 24 h at 37° C.
Experimental: as §1, §2, §3, §4, §5, §6, §7, §8

[3] = system: E. faecalis Human ATCC 29212; test: MIC determination, E. faecalis human ATCC 29212; type: cell-based; settings: Enterococcus faecalis, ATCC29212; Gram-positive; Mueller-Hinton medium, 24 h at 37° C.
Experimental: as §1, §2, §3, §4, §5, §6, §7, §8

E. coli Human ATCC 28922 = test: MIC determination, E. coli human ATCC 28922; type: cell-based; settings: Escherichia coli, ATCC28922; Gram-negative; Mueller-Hinton medium, 24 h at 37° C.
Experimental: as §1, §2, §3, §4, §5, §6, §7, §8

E. coli Animal (1956) = test: MIC determination, E. coli animal (1956); type: cell-based; settings: Escherichia coli; Gram-negative; Mueller-Hinton medium, 24 h at 37° C.
Experimental: as §1, §2, §3, §4, §5, §6, §7, §8

[4] = system: P. aeruginosa Human ATCC 27853; test: MIC determination, P. aeruginosa human ATCC 27853; type: cell-based; settings: Pseudomonas aeruginosa, ATCC27853; Gram-negative; Mueller-Hinton medium, 24 h at 37° C.
Experimental: as §1, §2, §3, §4, §5, §6, §7, §8

[5] = system: P. aeruginosa Animal (1051575); test: MIC determination, P. aeruginosa animal (1051575); type: cell-based; settings: Pseudomonas aeruginosa; Gram-negative; Mueller-Hinton medium, 24 h at 37° C.
Experimental: as §1, §2, §3, §4, §5, §6, §7, §8

CHO-K1 cells = test: WST1 cytotoxicity test on CHO-K1 cells; type: cell-based, Chinese hamster; settings: Cricetulus griseus, read-out: IC50 (μg/mL) CHO
Experimental: Test WST1 was used to measure the cytotoxic activity of the products. This is a colorimetric test which makes it possible to measure the viability and the degree of cell proliferation. It is based on cleavage of the colorless tetrazolium salts WST-1 (4-[3-(4-iodophenyl)-2-(4-nitrophenyl)-2H-5-tetrazolio]-1,3-benzene disulfonate) with mitochondrial dehydrogenases to the yellow-colored formazan derivative, which may be quantified by spectrophotometry at 420-480 nm.
The WST1 test was performed on Chinese hamster ovary cells. The CHO-K1 cells (ATCC, USA) are kept in culture in McCoy's 5A medium supplemented with 10% fetal calf serum, 2 mM of L-glutamine and a mixture of penicillin-streptomycin (100 U/ml: 10 μg/ml). The culture is incubated at 37° C. under an atmosphere enriched in CO2 (5%), and subcultured every two days.
The cells are transferred into 96-well plates (25000 cells/mL) in whole McCoy's 5A medium, and maintained for 24 hours at 37° C. under a humid atmosphere enriched in CO2 (5%). Increasing concentrations of test products are added to the wells in double tests and 8 growth controls containing the cells in the medium alone are included in each series of tests. After 24 hours at 37° C. (5% CO2), the culture medium is removed, the cells are rinsed in phosphate buffer (PBS) and 50 μL of PBS containing 10% of reagent WST1 are added to each well. After 20 minutes of incubation at 37° C., the results are read by spectrophotometry at 450 nm.
The results are expressed in dose-response relationships, modeled by nonlinear regression analysis using the TableCurve software. The 50% inhibitory concentration (IC50) represents the concentration of product that is capable of reducing the cell viability by 50%.

P. aeruginosa (1051575) = test: Potentiation of doxycycline activity (combination MIC); type: cell-based, Pseudomonas aeruginosa; settings: for MIC - P. aeruginosa (1051575): content of compound of formula (I) to restore the doxycycline activity (at 2 μg/mL): in presence of doxycycline 2 μg/mL, 24 hours at 37° C.

| Compound | MIC [1] [µg/mL] | MIC (S. aureus Animal (340)) [µg/mL] | MIC [2] [µg/mL] | MIC [3] [µg/mL] | MIC (E. coli Human ATCC 28922) [µg/mL] | MIC (E. coli Animal (1956)) [µg/mL] | MIC [4] [µg/mL] | MIC [5] [µg/mL] | IC50 (CHO-K1 cells; CHO-K1, 24 h) [µg/mL] | MIC - P. aeruginosa (1051575): content of compound of formula (I) to restore the doxycycline activity (at 2 μg/mL) (P. aeruginosa (1051575)) [µg/mL] | synergism when administered with doxycycline (P. aeruginosa (1051575); doxycycline at 2 μg/mL) | IC50 (CHO-K1 cells; Table III, WST1 test, CHO-K1 cells, 24 hours) [µg/mL] |
| --- | --- | --- | --- | --- | --- | --- | --- | --- | --- | --- | --- | --- |
| CC(C)NC(=O)CC[C@@H](C)[C@H]1CCC2C3CCC4C[C@@H](NCCCN5CCN(CCCN)CC5)CC[C@]4(C)C3C[C@H](O)[C@@]21C (stereo partly drawn) [(3), 3β-(1,4-bis(3-aminopropyl)piperazine)-N-isopropyldeoxycholamide] | 15 (≈ 24.4 µM) | 15 (≈ 24.4 µM) | 4 (≈ 6.49 µM) | 124 (≈ 201 µM) | 124 (≈ 201 µM) | > 124 | 124 (≈ 201 µM) | 62 (≈ 101 µM) | 120 (≈ 195 µM) | 2 | – | – |
| CC(C)NC(=O)CC[C@@H](C)[C@H]1CCC2C3C(C[C@H](O)[C@@]21C)[C@@]1(C)CC[C@H](NCCCN2CCN(CCCN)CC2)CC1C[C@H]3O (stereo partly drawn) [(6)] | 16 (≈ 25.3 µM) | 32 (≈ 50.6 µM) | 16 (≈ 25.3 µM) | 32 (≈ 50.6 µM) | 32 (≈ 50.6 µM) | 64 (≈ 101 µM) | 218 (≈ 345 µM) | 64 (≈ 101 µM) | 100 (≈ 158 µM) | 8 | – | – |
| CC(C)NC(=O)CC[C@@H](C)[C@H]1CCC2C3C(CC[C@@]21C)[C@@]1(C)CC[C@H](NCCCN2CCN(CCCN)CC2)CC1C[C@H]3O (stereo partly drawn) [(9), 3β-(1,4-bis(3-aminopropyl)piperazine)-N-isopropylchenodeoxycholamide] | 16 (≈ 26 µM) | 8 (≈ 13 µM) | 8 (≈ 13 µM) | 62 (≈ 101 µM) | 15 (≈ 24.4 µM) | 15 (≈ 24.4 µM) | 124 (≈ 201 µM) | 62 (≈ 101 µM) | 90 (≈ 146 µM) | 2 | noteworthy synergism | – |
| CNC(=O)CC[C@@H](C)[C@H]1CCC2C3C(CC[C@@]21C)[C@@]1(C)CC[C@H](NCCCNCCCNCCCN)CC1C[C@H]3O (stereo partly drawn) [(10), 3β-norspermino-N-methylchenodeoxycholamide] | 7 (≈ 12.2 µM) | 1 (≈ 1.74 µM) | 1 (≈ 1.74 µM) | 14 (≈ 24.3 µM) | 14 (≈ 24.3 µM) | 7 (≈ 12.2 µM) | 28 (≈ 48.6 µM) | 5 (≈ 8.68 µM) | 35 (≈ 60.8 µM) | 1 | – | – |
| CNC(=O)CC[C@@H](C)[C@H]1CCC2C3C(CC[C@@]21C)[C@@]1(C)CC[C@H](NCCCN2CCN(CCCN)CC2)CC1C[C@H]3O (stereo partly drawn) [(12), 3β-(1,4-bis(3-aminopropyl)piperazine)-N-methylchenodeoxycholamide] | 8 (≈ 13.6 µM) | 4 (≈ 6.8 µM) | 2 (≈ 3.4 µM) | 15 (≈ 25.5 µM) | 30 (≈ 51 µM) | 15 (≈ 25.5 µM) | 60 (≈ 102 µM) | 30 (≈ 51 µM) | 50 (≈ 85 µM) | 8 | – | – |
| CCN(CC)C(=O)CC[C@@H](C)[C@H]1CCC2C3C(CC[C@@]21C)[C@@]1(C)CC[C@H](NCCCNCCCN)CC1C[C@H]3O (stereo partly drawn) [(13), 3β-norspermidino-N,N-diethylchenodeoxycholamide] | 2 (≈ 3.57 µM) | 4 (≈ 7.13 µM) | 2 (≈ 3.57 µM) | 2 (≈ 3.57 µM) | 8 (≈ 14.3 µM) | 8 (≈ 14.3 µM) | 16 (≈ 28.5 µM) | 16 (≈ 28.5 µM) | 22 (≈ 39.2 µM) | 2 | – | – |
| CC(C)NC(=O)CC[C@@H](C)[C@H]1CCC2C3C(CC[C@@]21C)[C@@]1(C)CC[C@H](NCCCNCCCNCCCN)CC1C[C@@H]3O (stereo partly drawn) [(14), 3β-norspermino-N-isopropylursodeoxycholamide] | 16 (≈ 26.5 µM) | 32 (≈ 53 µM) | 4 (≈ 6.62 µM) | 128 (≈ 212 µM) | 128 (≈ 212 µM) | 128 (≈ 212 µM) | 64 (≈ 106 µM) | 128 (≈ 212 µM) | 90 (≈ 149 µM) | 1 | – | – |
| CC(C)NC(=O)CC[C@@H](C)[C@H]1CCC2C3C(CC[C@@]21C)[C@@]1(C)CC[C@H](NCCCN2CCN(CCCN)CC2)CC1C[C@@H]3O (stereo partly drawn) [(16), 3β-(1,4-bis(3-aminopropyl)piperazine)-N-isopropylursodeoxycholamide] | 60 (≈ 97.4 µM) | 60 (≈ 97.4 µM) | 15 (≈ 24.4 µM) | 120 (≈ 195 µM) | 60 (≈ 97.4 µM) | 120 (≈ 195 µM) | > 120 | > 120 | – | – | – | – |
| CC(C)NC(=O)CC[C@@H](C)[C@H]1CCC2C3C(CC[C@@]21C)[C@@]1(C)CC[C@H](NCCNCCNCCNCCNCCN)CC1C[C@@H]3O (stereo partly drawn) [(23), 3β-(pentaethylenehexamine)-N-isopropylursodeoxycholamide] | 32 (≈ 49.4 µM) | 32 (≈ 49.4 µM) | 16 (≈ 24.7 µM) | 64 (≈ 98.8 µM) | 128 (≈ 198 µM) | 128 (≈ 198 µM) | 128 (≈ 198 µM) | 128 (≈ 198 µM) | – | – | – | 115 (≈ 177 µM) |
| CCN(CC)C(=O)CC[C@@H](C)[C@H]1CCC2C3C(CC[C@@]21C)[C@@]1(C)CC[C@H](NCCCNCCCNCCCN)CC1C[C@H]3O (stereo partly drawn) [(39), 3β-norspermino-N,N-diethylchenodeoxycholamide] | 2 (≈ 3.24 µM) | 1 (≈ 1.62 µM) | 1 (≈ 1.62 µM) | – | 120 (≈ 194 µM) | 4 (≈ 6.47 µM) | 15 (≈ 24.3 µM) | 8 (≈ 12.9 µM) | – | 2 | – | – |
